Measurements as given in PubChem BioAssay (NCI).
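Cultured in 96-well plates, cells were exposed to test compound for 48 hours across five concentrations. At the GI50, growth is halved. TGI: concentration producing complete growth inhibition.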

Key:
Test in all cases: NCI tumour cell line growth inhibition, 48 h
HL-60(TB) leukemia = test system: HL-60(TB) leukemia
HOP-62 NSCLC = test system: HOP-62 NSCLC
IGROV1 ovarian = test system: IGROV1 ovarian
MDA-MB-435 = test system: MDA-MB-435
OVCAR-3 ovarian = test system: OVCAR-3 ovarian
OVCAR-4 ovarian = test system: OVCAR-4 ovarian
OVCAR-5 ovarian = test system: OVCAR-5 ovarian
SK-OV-3 ovarian = test system: SK-OV-3 ovarian
SN12C renal = test system: SN12C renal
TK-10 renal = test system: TK-10 renal

Row | SMILES | TGI (HL-60(TB) leukemia) | TGI (HOP-62 NSCLC) | TGI (IGROV1 ovarian) | TGI (MDA-MB-435) | TGI (OVCAR-3 ovarian) | TGI (OVCAR-4 ovarian) | TGI (OVCAR-5 ovarian) | TGI (SK-OV-3 ovarian) | TGI (SN12C renal) | TGI (TK-10 renal) | GI50 (HL-60(TB) leukemia) | GI50 (HOP-62 NSCLC) | GI50 (MDA-MB-435) | GI50 (OVCAR-3 ovarian) | GI50 (OVCAR-4 ovarian) | GI50 (OVCAR-5 ovarian) | GI50 (SK-OV-3 ovarian) | GI50 (SN12C renal) | GI50 (TK-10 renal) | GI50 (IGROV1 ovarian)
1 | CCCn1cnc2c(SCC(=O)O)nc(N)nc21 | > 100 µM | > 100 µM | > 100 µM | > 100 µM | > 100 µM | > 100 µM | > 100 µM | > 100 µM | > 100 µM | > 100 µM |  |  |  |  |  |  |  |  |  | 
2 | Cc1cc(Cl)ccc1OCC(=O)Nc1nc(N)nc(N)n1 | > 100 µM | > 100 µM | > 100 µM | > 100 µM | > 100 µM | > 100 µM | > 100 µM | > 100 µM | > 100 µM | > 100 µM |  |  |  |  |  |  |  |  |  | 
3 | CN(C)c1nc(=NCc2ccco2)ss1 | 10.6 µM | 62.8 µM | > 100 µM | 42.3 µM | 63 µM | 51.7 µM | > 55.6 µM | > 87 µM | 57.2 µM | > 100 µM |  |  |  |  |  |  |  |  |  | 
4 | CCOc1ccc2c(c1)C(=O)c1c-2n(CCCBr)c(=O)c2cc([N+](=O)[O-])ccc12 | > 100 µM | > 100 µM |  | > 100 µM | > 100 µM | > 100 µM | > 100 µM | > 100 µM | > 100 µM | > 100 µM | 64.5 µM | 5.81 µM | 30.6 µM | 23.2 µM | > 100 µM | 59.4 µM | 17.6 µM | 11.9 µM | > 100 µM | 
5 | Cc1cc(Nc2nc(C(=O)Nc3ccccc3)nc3ccccc23)n[nH]1 | > 25 µM | > 25 µM | > 25 µM | > 25 µM | > 25 µM | > 25 µM | > 25 µM | > 25 µM | > 25 µM | > 25 µM | 5.9 µM | 14.2 µM | 9.67 µM | 11.5 µM | 7.87 µM | > 25 µM | 12.8 µM | 10.3 µM | 2.52 µM | 4.48 µM
6 | C1=C/COCc2cc(ccc2OCCN2CCCC2)Nc2nccc(n2)-c2ccc(o2)COC/1 | 6.27 µM | 6.91 µM | 6.57 µM | 3.73 µM | 8.48 µM | 10.4 µM | 3.8 µM | 7.53 µM | 5 µM | 12 µM | 0.729 µM | 2.28 µM | 1.2 µM | 1.99 µM | 2.33 µM | 0.716 µM | 2.44 µM | 0.99 µM | 2.42 µM | 0.626 µM
7 | Cc1ccc2nc(-c3ccc(OCC(=O)N=Nc4c(O)[nH]c5ccccc45)cc3)[nH]c2c1 | 35.9 µM | 45.4 µM | 16.1 µM | 3.88 µM | 3.79 µM | 4.09 µM | > 100 µM | 37 µM | 7.73 µM | 30.8 µM | 9.8 µM | 19 µM | 1.95 µM | 1.97 µM | 1.95 µM | 19.1 µM | 17.5 µM | 2.42 µM | 12.8 µM | 3.61 µM
8 | CC(C)c1nc(N(C)S(C)(=O)=O)nc(-c2ccc(F)cc2)c1/C=C/[C@@H](O)C[C@@H](O)CC(=O)O | > 100 µM | > 100 µM | > 100 µM | > 100 µM | > 100 µM | > 100 µM | > 100 µM | > 100 µM | > 100 µM | > 100 µM | > 100 µM | > 100 µM | 79.9 µM | > 100 µM | > 100 µM | > 100 µM | > 100 µM | 56.2 µM | > 100 µM | > 100 µM
9 | c1cc(-c2nnc(SSc3ncnc4nc[nH]c34)o2)ccn1 | > 100 µM | > 100 µM |  | > 100 µM | 1.73 µM | > 100 µM | > 100 µM | > 100 µM | > 100 µM | > 100 µM | 2.49 µM | 2.52 µM | 0.497 µM | 0.319 µM | 0.519 µM | 3.1 µM | 0.45 µM | 6.6 µM | 0.487 µM | 
10 | C#CCNC(=S)N/N=C(\C)c1ccccn1 | 0.36 µM | 16 µM | > 100 µM | > 100 µM | 19.4 µM | 1.35 µM | > 100 µM | > 100 µM | > 100 µM | > 100 µM | 0.084 µM | 1.25 µM | 3.1 µM | 0.0353 µM | 0.0519 µM | 0.885 µM | 3 µM | 0.388 µM | 3.07 µM | 0.0522 µM
11 | O=c1cc(-c2ccc(O)cc2)oc2cc(O[C@@H]3O[C@H](CO)[C@@H](O)[C@H](O)[C@H]3O)cc(O)c12 | > 100 µM | > 100 µM | > 100 µM | > 100 µM | > 100 µM | > 100 µM | > 100 µM | > 100 µM | > 100 µM | > 100 µM |  |  |  |  |  |  |  |  |  | 
12 | CN(Cc1ccc(C(F)(F)F)cc1)CC(O)C(=O)Nc1ccc(Cl)cc1 (configuration not stated) | 3.09 µM | 3.18 µM | 3.04 µM | 3 µM | 3.03 µM | 2.26 µM | 2.86 µM | 2.96 µM | 2.88 µM | 3.38 µM | 1.37 µM | 1.7 µM | 1.52 µM | 1.55 µM | 1 µM | 1.43 µM | 1.48 µM | 1.49 µM | 1.74 µM | 1.46 µM
13 | COC(=O)c1cc2c(cc1Cl)SC1=NN(C)S(=O)N1S2(=O)=O (configuration not stated) | > 100 µM | > 100 µM | > 100 µM | > 100 µM | > 100 µM | > 100 µM | > 100 µM | > 100 µM | > 100 µM | > 100 µM | > 100 µM | > 100 µM | > 100 µM | > 100 µM | > 100 µM | > 100 µM | > 100 µM | > 100 µM | > 100 µM | > 100 µM
14 | CCN(Cc1cc(F)ccc1F)c1ccc(CO)c(Cl)c1 | 34.7 µM | 20.5 µM | 0.279 µM | 30 µM | 0.861 µM | 1.15 µM | 0.228 µM | 29.1 µM | 25.6 µM | 0.199 µM | 5.62 µM | 1.35 µM | 12.8 µM | 0.238 µM | 0.129 µM | 0.0502 µM | 8.94 µM | 11.8 µM | 0.0332 µM | 0.0527 µM
15 | CCC(C)Oc1nc2c(c(=O)n(C)c(=O)n2C)n1C (configuration not stated) | > 100 µM | > 100 µM | > 100 µM | > 100 µM | > 100 µM | > 100 µM | > 100 µM | > 100 µM | > 100 µM | > 100 µM | > 100 µM | > 100 µM | > 100 µM | > 100 µM | > 100 µM | > 100 µM | > 100 µM | > 100 µM | > 100 µM | > 100 µM
16 | Cc1ncc(C(=O)Nc2ccc(CN3CCN(C)CC3)c(C(F)(F)F)c2)cc1C#Cc1ccc(N)nc1 | 1.91 µM | 2.6 µM | 0.751 µM | 0.789 µM | 4.16 µM | 3.74 µM | 5.3 µM | 2.56 µM | 2.25 µM | 4.39 µM | 0.29 µM | 0.426 µM | 0.155 µM | 0.556 µM | 0.122 µM | 0.412 µM | 0.395 µM | 0.135 µM | 0.654 µM | 0.118 µM
17 | O=c1c2cc(-c3ccccc3)sc2ncn1Cc1ccc(Cl)c(Cl)c1 | 34.1 µM | 24.7 µM | 34.9 µM | > 100 µM | 36.2 µM | 38 µM | > 100 µM | 58 µM | 39.1 µM |  | 14.9 µM | 10.3 µM | 40.6 µM | 15.8 µM | 12.5 µM | 5.46 µM | 19.4 µM | 13.1 µM |  | 1.93 µM
18 | O=[N+]([O-])c1cccc(-c2nc(-c3ccccc3)c(-c3ccccc3)[nH]2)c1 | > 100 µM | > 100 µM | > 100 µM | > 100 µM | > 100 µM |  | > 100 µM | > 100 µM | > 100 µM | > 100 µM |  |  |  |  |  |  |  |  |  | 
19 | COc1cccc(CN(C)c2ccc(CO)c(Cl)c2)c1 | > 87.1 µM | > 87.7 µM | 2.6 µM | 66.2 µM | 10.6 µM | 29.4 µM | 1.91 µM | > 60.7 µM | > 100 µM |  | 26 µM | 5.33 µM | 19.7 µM | 2.31 µM | 1.19 µM | 0.322 µM | 11.3 µM | 24.7 µM |  | 0.216 µM
20 | CCN1CCN(Cc2ccc(NC(=O)Nc3nc4ccc(Oc5ccnc(C(=O)NC)c5)cc4s3)cc2C(F)(F)F)CC1 | 4.11 µM | 3.78 µM | 3.62 µM | 2.86 µM | 3.59 µM |  | 3.93 µM | 3.36 µM | 3.66 µM | 4.54 µM | 2.01 µM | 1.95 µM | 1.44 µM | 1.89 µM |  | 2.12 µM | 1.82 µM | 1.8 µM | 2.5 µM | 1.76 µM
21 | CN1CCN(Cc2ccc(NC(=O)c3cncc(C#Cc4cnc(N)cc4C#N)c3)cc2C(F)(F)F)CC1 | 3.58 µM | 13.1 µM | 5.62 µM | 11.7 µM | 20.4 µM |  | 14.2 µM | 9.31 µM | 10.7 µM | 17.5 µM | 0.768 µM | 3.33 µM | 1.98 µM | 4.88 µM |  | 2.76 µM | 2.63 µM | 2.46 µM | 4.92 µM | 1.16 µM
